Results taken from patent US20070059385A1, “Safe pharmaceutical composition for treating and preventing cancer and method of use” (priority 2005, published 2007).
Like-named read-outs stand apart in the source and are kept apart here.

How the values were obtained:
Normal cells = experiment: Apoptosis of normal cells; format: cell-based
Procedure: Cells ([…] were incubated in 10 ml IMDM plus […] heat-inactivated fetal calf serum. Samples were incubated for 24 hours with various concentrations of drugs. Control samples received the same amount of media, without drug addition. After 24 hours of incubation the samples were pelleted and fixed in ethanol […] for 15 minutes at 4° C.; after three washes in PBS, the cells were treated with RNase I 0.5 mg/ml for 15 minutes at 37° C. The cells were harvested by centrifugation and resuspended in 50 μg/ml propidium iodide in PBS. Analysis (upon acquisition of 10,000-20,000 events) was performed on a FACscan flow cytometer with the FL2 detector in logarithmic mode, using Lysis II software (Becton Dickinson). Apoptotic cells were located in the hypodiploid region of the histogram, due to chromosome condensation and fragmentation.
For evaluation of apoptosis by flow cytometry, cells were fixed and permeabilized in 1% paraformaldehyde and ice-cold 70% ethanol. Digoxigenin-dUTP was incorporated at the 3′OH ends of the fragmented DNA in the presence of terminal deoxynucleotidyltranserase, and the cells were incubated with FITC-labeled anti-digoxigenin-dUTP and with propidium iodide. Green (apoptotic cells) and orange (total DNA) fluorescence were measured with a FACScan flow cytometer and analyzed with LYSIS II and CELLFIT programs. Data were analyzed by Student's t-test. P values were considered significant when <0.05. […]

[1] = dog, in vivo
From the text: Twenty normal adult dogs which weight approximately 10 kg±1 kg used in experiments.
Most deaths were caused by cardiac dysfunction.

[2] = Metabolism (organ and blood radioactivity) of [^3H]-HHT in P388 mice; format: in vivo; settings: P388 mice, [^3H]-HHT 1 mg/kg
Procedure: Animals: Adult DBA/2J male mice, 6 to 8 weeks old. All animals weighed approximately 25 g when used in experiments. Each member of which received identical dosed (i.p.) of HHT.
Tumor: P388 leukemic cells induced in mice by inoculation with L1210 or P388 leukemic cells ([…]).
After P388 induced in mice 5 days, 1 mg/kg of [^3H]-HHT (100 μC/mg) was injected to mice. Volumes were 0.01 ml/g body weight. […] The key data of HHT in metabolism process are determined counts per minute (CPM) of [^3H]-HHT in organs. CPM is determined by liquid scintillation counting (LSC). The methods of LSC combined with radioactive of [^3H]-HHT can be determined using a tracer of HHT in organs. After killed animals, organs and blood were obtained from P388 mice. Organs were weighted. 10 mg of organs were digested. 10 ml of scintillation solution (which containing […]) were added to digested solution and determined at LSC. Other processes are similar to the standard method.

SMILES: COC(=O)C[C@](O)(CCCC(C)(C)O)C(=O)O[C@@H]1C(OC)=C[C@]23CCCN2CCc2cc4c(cc2[C@H]13)OCO4 [HHT, Homoharringtonine]
- Apoptosis (%) (Normal cells; HHT 10 ng/ml): 16.5 ± 2.0 %
- Apoptosis (%) (Normal cells; HHT 50 ng/ml): 18.5 ± 2.5 %
- Apoptosis (%) (Normal cells; HHT 100 ng/ml): 22.0 ± 3.5 %
- Apoptosis (%) (Normal cells; HHT 500 ng/ml): 29.5 ± 5.2 %
- Apoptosis (%) (Normal cells; Table 4, HHT (50 ng/ml) alone or in combination): 18.5 ± 2.5%
- major target organs involved in toxicity [1]: limited to G.I. tract, heart and hematopoietic organs
- reversibility of toxicities [1]: completely reversible upon discontinuation of treatment
- Abnormality of ECG, ST-T ([1]; 0.1 mg/kg/day): −
- Anorexia ([1]; 0.1 mg/kg/day): +
- Cardiac necrosis ([1]; 0.1 mg/kg/day): −
- Diarrhea ([1]; 0.1 mg/kg/day): ±
- Hepatic ecchymosis ([1]; 0.1 mg/kg/day): −
- Hepatic fibrosis and cirrhosis ([1]; 0.1 mg/kg/day): −
- Hepatic necrosis ([1]; 0.1 mg/kg/day): −
- Marrow depression ([1]; 0.1 mg/kg/day): +
- Renal necrosis ([1]; 0.1 mg/kg/day): −
- Renal toxic nephropathy ([1]; 0.1 mg/kg/day): −
- Seminal depression ([1]; 0.1 mg/kg/day): −
- Spleen necrosis ([1]; 0.1 mg/kg/day): −
- Vomiting ([1]; 0.1 mg/kg/day): +
- Abnormality of ECG, ST-T ([1]; 0.2 mg/kg/day): ±
- Anorexia ([1]; 0.2 mg/kg/day): ++
- Cardiac necrosis ([1]; 0.2 mg/kg/day): −
- Diarrhea ([1]; 0.2 mg/kg/day): +
- Hepatic ecchymosis ([1]; 0.2 mg/kg/day): −
- Hepatic fibrosis and cirrhosis ([1]; 0.2 mg/kg/day): −
- Hepatic necrosis ([1]; 0.2 mg/kg/day): ±
- Marrow depression ([1]; 0.2 mg/kg/day): +
- Renal necrosis ([1]; 0.2 mg/kg/day): −
- Renal toxic nephropathy ([1]; 0.2 mg/kg/day): −
- Seminal depression ([1]; 0.2 mg/kg/day): −
- Spleen necrosis ([1]; 0.2 mg/kg/day): −
- Vomiting ([1]; 0.2 mg/kg/day): +
- Abnormality of ECG, ST-T ([1]; 0.3 mg/kg/day): +
- Anorexia ([1]; 0.3 mg/kg/day): +++
- Cardiac necrosis ([1]; 0.3 mg/kg/day): ±
- Diarrhea ([1]; 0.3 mg/kg/day): +
- Erythrocyte count ([1]; 0.3 mg/kg/day): 3.40 ×10^6/mm^3
- Hepatic ecchymosis ([1]; 0.3 mg/kg/day): ±
- Hepatic fibrosis and cirrhosis ([1]; 0.3 mg/kg/day): ±
- Hepatic necrosis ([1]; 0.3 mg/kg/day): +
- Marrow depression ([1]; 0.3 mg/kg/day): ++
- Renal necrosis ([1]; 0.3 mg/kg/day): ±
- Renal toxic nephropathy ([1]; 0.3 mg/kg/day): ±
- Seminal depression ([1]; 0.3 mg/kg/day): −
- Spleen necrosis ([1]; 0.3 mg/kg/day): ±
- Vomiting ([1]; 0.3 mg/kg/day): ++
- CMP/mg organ, Bone ([2]; 1 hour): 500 CMP/mg organ
- CMP/mg organ, Brain ([2]; 1 hour): 499 CMP/mg organ
- CMP/mg organ, Contents of intestine ([2]; 1 hour): 3323 CMP/mg organ
- CMP/mg organ, Contents of stomach ([2]; 1 hour): 6821 CMP/mg organ
- CMP/mg organ, Heart ([2]; 1 hour): 1403 CMP/mg organ
- CMP/mg organ, Intestine ([2]; 1 hour): 1638 CMP/mg organ
- CMP/mg organ, Kidney ([2]; 1 hour): 6501 CMP/mg organ
- CMP/mg organ, Liver ([2]; 1 hour): 4145 CMP/mg organ
- CMP/mg organ, Lung ([2]; 1 hour): 2100 CMP/mg organ
- CMP/mg organ, Spleen ([2]; 1 hour): 2828 CMP/mg organ
- CMP/mg organ, Stomach ([2]; 1 hour): 1626 CMP/mg organ
- CMP/mg organ, Bone ([2]; 3 hours): 560 CMP/mg organ
- CMP/mg organ, Brain ([2]; 3 hours): 646 CMP/mg organ
- CMP/mg organ, Contents of intestine ([2]; 3 hours): 7215 CMP/mg organ
- CMP/mg organ, Contents of stomach ([2]; 3 hours): 84375 CMP/mg organ
- CMP/mg organ, Heart ([2]; 3 hours): 1800 CMP/mg organ
- CMP/mg organ, Intestine ([2]; 3 hours): 3288 CMP/mg organ
- CMP/mg organ, Kidney ([2]; 3 hours): 3121 CMP/mg organ
- CMP/mg organ, Liver ([2]; 3 hours): 6718 CMP/mg organ
- CMP/mg organ, Lung ([2]; 3 hours): 2427 CMP/mg organ
- CMP/mg organ, Spleen ([2]; 3 hours): 2426 CMP/mg organ
- CMP/mg organ, Stomach ([2]; 3 hours): 2321 CMP/mg organ
- CMP/mg organ, Bone ([2]; 6 hours): 505 CMP/mg organ
- CMP/mg organ, Brain ([2]; 6 hours): 793 CMP/mg organ
- CMP/mg organ, Contents of intestine ([2]; 6 hours): 6250 CMP/mg organ
- CMP/mg organ, Contents of stomach ([2]; 6 hours): 100719 CMP/mg organ
- CMP/mg organ, Heart ([2]; 6 hours): 1193 CMP/mg organ
- CMP/mg organ, Intestine ([2]; 6 hours): 2475 CMP/mg organ
- CMP/mg organ, Kidney ([2]; 6 hours): 3501 CMP/mg organ
- CMP/mg organ, Liver ([2]; 6 hours): 4109 CMP/mg organ
- CMP/mg organ, Lung ([2]; 6 hours): 1788 CMP/mg organ
- CMP/mg organ, Spleen ([2]; 6 hours): 2198 CMP/mg organ
- CMP/mg organ, Stomach ([2]; 6 hours): 3703 CMP/mg organ
- CMP/mg organ, Bone ([2]; 24 hours): 480 CMP/mg organ
- CMP/mg organ, Brain ([2]; 24 hours): 986 CMP/mg organ
- CMP/mg organ, Contents of intestine ([2]; 24 hours): 5009 CMP/mg organ
- CMP/mg organ, Contents of stomach ([2]; 24 hours): 117914 CMP/mg organ
- CMP/mg organ, Heart ([2]; 24 hours): 893 CMP/mg organ
- CMP/mg organ, Intestine ([2]; 24 hours): 1067 CMP/mg organ
- CMP/mg organ, Kidney ([2]; 24 hours): 1065 CMP/mg organ
- CMP/mg organ, Liver ([2]; 24 hours): 2175 CMP/mg organ
- CMP/mg organ, Lung ([2]; 24 hours): 1312 CMP/mg organ
- CMP/mg organ, Spleen ([2]; 24 hours): 2156 CMP/mg organ
- CMP/mg organ, Stomach ([2]; 24 hours): 1823 CMP/mg organ
